# Data as given in US12415819B2, “Cu- and Ni-catalyzed decarboxylative borylation reactions” (The Scripps Research Institute, priority 2017, dated 2025).
# Where “and” joins values, the source holds several entries; their conditions need not be identical. Equal entries are not always repeated.
# Legend:
# in vitro = assay: in vitro
# Experimental: 100 mM potassium phosphate buffer, pH 7.4. • 2. 10 mM MgCl2 • 3) Compound Dilution:
# Intermediate solution was prepared by diluting 5 μL of compound or control stock solution (10 mM in DMSO) with DMSO (45 μL) and 1:1 Methanol/Water (450 μL) (concentration=100 μM, 45% MeOH). Working solution was prepared by diluting 50 μL of the intermediate solution with 450 μL of 100 mM potassium phosphate buffer, pH=7.4 (centration=10 μM, 4.5% MeOH). • 4) NADPH regenerating system (final Isocitric dehydrogenase concentration=1 unit/mL at incubation) comprised:
# 10 μL/well of compound working solution or control working solution was added to all plates (T0, T5, T10, T20, T30, T60, NCF60) except the matrix blank. 80 μL/well of microsome solution was added to every plate. The mixtures of microsome solution and compound were incubated at 37° C. for about 10 min. 10 μL/well of NADPH regenerating system (pre-warmed to 37° C.) was then added to every plate to start the reaction. […] For NCF60 (abbreviation of no co-factor) no NADPH regenerating system was added, but was replaced by 10 μL/well of potassium phosphate buffer (100 mM, pH 7.4); the resulting mixture was incubated at 37° C. for 1 h.
# The reactions were then terminated with the stop solution (cold at 4° C.) containing 100 ng/mL Tolbutamide and 100 ng/mL Labetalol ([…]). The sampling plates were shaken for approximately 10 minutes, then were centrifuged at 4000 rpm for 20 min at 4° C. While centrifuging, 8 new 96 well plates were loaded with […] of HPLC grade water. 100 μL of supernatant was finally added to 300 μL of HPLC grade water and mixed for LC/MS/MS analysis.
# The equation of first order kinetics was used to calculate T1/2 and CIint(mic): […]
# Plasma Stability Assay = type: in vitro ADME, mouse
# Experimental: Propantheline was used as the reference compound in this assay; all stock solutions were stored at −40° C. before use. • 2) Test system: CD-1 Mouse Plasma from a minimum of 20 male individuals were obtained from BioreclamationlVT (Catalog #: […]2-M; Batch #: MSE244515). EDTA-K2 was used as the anticoagulant. Procedure:
# The frozen plasma was thawed in a water bath at 37° C. prior to the experiments. The plasma was centrifuged at 4000 rpm for 5 min and the clots were removed if necessary.
# The pH was adjusted to 7.4±0.1 as necessary. An intermediate solution (1 mM) was prepared and a 100 μM dosing solution was prepared by diluting 10 μL of the intermediate solution with 90 μL 45% MeOH/H2O. Duplicate of test samples were made by mixing 98 μL of blank plasma with 2 μL of dosing solution (100 μM) to achieve the final concentration of 2 μM. Samples were incubated at 37° C. At each time point (0, 10, 30, 60, and 120 min), 400 μL of stop solution (consisting of 200 ng/mL tolbutamide and 20 ng/mL buspirone in 50% MeOH/CH3CN) was added to precipitate protein under thorough mixing. The sample plates were then centrifuged at 4,000 rpm for 10 min. An aliquot of supernatant (100 μL) was transferred from each well and mixed with 200 of μL ultrapure water. The samples were shaken at 800 rpm for about 10 min before LC-MS/MS analysis.
# Data analysis: The % remaining of test compound after incubation in plasma was calculated using following equation: Remaining=100×(PAR at Tn/PAR at T0) where PAR is the peak area ratio of analyte versus internal standard (IS) and The appointed incubation time points are T0 (0 min), Tn (n=0, 10, 30, 60, 120 min).
# LC-MS/MS condition: Each compound was analyzed by LC/MS using an ACE 5-phenyl 50×2.1 mm column (Part No. ACE-125-0502) with 0.1% formic acid in water and 0.1% formic acid in acetonitrile as the mobile phases. Tobultamide was used as the internal standard. Data collected were processed by Analyst 1.6.2 software and MultiQuant 3.0.2 software.
# [1] = target: elastase in CF patient sputum (Homo sapiens (Human), UniProt P08246); assay: Elastase inhibition assay in CF patient sputum; type: biochemical
# Experimental: (§1) Serially diluted compounds in DMSO were dispensed into a 384-well black opaque plate by Echo dispenser. 0.1 μg/mL human neutrophil elastase (EPC, Catalog# SE563, Owensville, Ms.) or human sputum diluted with assay buffer (100 mM HEPES, 500 mM NaCl, 0.02% Tween 20) was added into the 384-well plate, and was incubated with different compounds at different concentrations for 30 minutes at room temperature. The final concentration of DMSO in the reaction was 0.1%. Elastase substrate MeOSuc-AAPV-AMC (Bachem, Catalog #I-1270, Torrance, CA) of 100 μM final concentration was then added into the reaction system just before enzyme kinetics were read on PheraSTAR plate reader at excitation of 380 nm and emission of 460 nm with a 3-minutes interval for 30 minutes in total. Slope of fluorescence intensity vs. time representing the Vmax of enzyme activity was calculated with MARS software. % relative inhibition was calculated as: […]
# (§2) IC50 was calculated based on the % relative inhibition curve using log(agonist) vs. response (three parameters) method with Prism software. All experiments were performed in triplicate for at least three independent times.
# (§3) Human sputum was purchased from Discovery Life Sciences (Los Osos, CA). Human sputum was diluted 1:10 in volume with assay buffer (100 mM HEPES, 500 mM NaCl, 0.02% Tween 20) followed by vigorous vortexing. The 1:10 diluted human sputum was further diluted into 1:30, 1:90, 1:270, 1:810, and 1:2430. The elastase concentration was determined by elastase inhibition assay as described above. Specifically, a series of standards of human neutrophil elastase (starting at 2 μg/mL and further diluted 1:2 in volume) were prepared in the assay buffer. The samples and standards were plated in a 384-well black solid bottom plate; the substrate MeOSuc-AAPV-AMC of 100 μM final concentration was then added into the reaction system just before enzyme kinetics were read on PheraSTAR plate reader as mentioned above. The slope of enzymatic kinetic reading was calculated by MARS software. The elastase levels of the human sputum were calculated based on the standard curve.
# Kinetic Solubility Test = type: physicochemical
# Experimental: The stock solution of each compound (10 μL; 10 mM in DMSO) was diluted with phosphate buffer solution (490 μL; 50 mM, pH 6.8). The resulting mixture was shaken for 24 h. Samples were then filtered.
# [2] = target: elastase in COPD patient sputum (Homo sapiens (Human), UniProt P08246); assay: Elastase inhibition assay in COPD patient sputum; type: biochemical
# Experimental: as §1, §2, §3
# Caco-2 cells = assay: in vitro; settings: Caco-2
# Experimental: Digoxin, fenoterol, and propranol were used as standards respectively. Transport Method:
# The transport buffer used in the study was HBSS with 10 mM HEPES at pH 7.40±0.05. Compounds were tested at 2 μM bi-directionally in duplicates. Digoxin was tested at […] bi-directionally in a duplicate, while fenoterol and propranolol were tested at 2 μM in A(apical) to B (basolateral) direction in duplicates. The final DMSO concentration was adjusted to less than 1%. The plate was incubated for 2 hours in a CO2 incubator at 37±1° C., with 5% CO2 at saturated humidity without shaking. All samples, after mixing with acetonitrile containing internal standard, were centrifuged at 4000 rpm for 20 min. Subsequently,100 μL supernatant solution was diluted with 100 μL distilled water for LC/MS/MS analysis. Concentrations of test and control compounds in starting solution, donor solution, and receiver solution were quantified by LC/MS/MS methodologies, using peak area ratio of analyte/internal standard. After transport assay, lucifer yellow rejection assay was applied to determine the Caco-2 cell monolayer integrity.
# Data analysis: The apparent permeability coefficient Papp (cm/s) was calculated using the equation:
# The efflux ratio was calculated using the equation: Efflux ratio=Papp(BA)/Papp(AB)
# Percent recovery was calculated using the equation: % Recovery=100×[(Vr·Cr)+(Vd·Cd)]/(Vd·C0) Where Vd is the volume in the donor chambers (0.075 mL on the apical side, 0.25 mL on the basolateral side); Cd and Cr are the final concentrations of transport compound in donor and receiver chambers, respectively.
# [3] = target: T1, human neutrophil elastase (Homo sapiens (Human), UniProt P08246); assay: Elastase inhibition assay, purified human neutrophil elastase; type: biochemical
# [4] = target: T1, human neutrophil elastase; assay: as above; type: biochemical; settings: for IC50: read-out: IC50
# Experimental: as §1, with “Elastase substrate MeOSuc-AAPV-AMC (Bachem, Catalog #I-1270, Torrance, CA) of 100 μM final concentration was then added into the reaction system just before enzyme kinetics were read on PheraSTAR plate reader at excitation of 380 nm and emission of 460 nm with a 3-minutes interval for 30 minutes in total.” left out
# as §2
# [5] = target: T1, human neutrophil elastase; assay: Time dependence of elastase inhibition; type: biochemical
# Experimental: The procedure for the elastase inhibition assay was followed with slight modifications. 0.1 μg/mL human neutrophil elastase was incubated with a range of concentrations of inhibitors for 5, 15, 30 and 60 minutes before substrate MeOSuc-AAPV-AMC of 100 μM final concentration was added. Enzyme kinetics were read on PheraSTAR plate reader and IC50 was calculated with the method described above.
# [6] = mouse, microsomes, 1 h, 1 μM, pH 7.4
# Chain of elastase in CF patient sputum (P08246 30-267): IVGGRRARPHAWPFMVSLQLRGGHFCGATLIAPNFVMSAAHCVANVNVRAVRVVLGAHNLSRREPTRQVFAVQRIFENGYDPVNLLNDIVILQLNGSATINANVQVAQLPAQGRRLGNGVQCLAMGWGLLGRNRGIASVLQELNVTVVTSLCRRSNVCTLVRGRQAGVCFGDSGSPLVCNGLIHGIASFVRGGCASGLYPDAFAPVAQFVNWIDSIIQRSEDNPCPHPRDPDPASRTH
# Chain of elastase in COPD patient sputum (P08246 30-267): as above
# T1 sequence (P08246 30-247): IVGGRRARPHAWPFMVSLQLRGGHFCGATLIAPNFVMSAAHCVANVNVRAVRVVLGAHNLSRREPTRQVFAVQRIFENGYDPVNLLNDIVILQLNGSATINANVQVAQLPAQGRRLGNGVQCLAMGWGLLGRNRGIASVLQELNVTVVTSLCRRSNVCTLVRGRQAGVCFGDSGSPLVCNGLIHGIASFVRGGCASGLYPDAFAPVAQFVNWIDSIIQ
smiles,measurement,setting,value
"COC(=O)N[C@H](C(=O)N1CCC[C@H]1C(=O)N[C@H](B(O)O)C(C)C)C(C)C [Compound 50, ((R)-1-((S)-1-((methoxycarbonyl)-L-valyl)pyrrolidine-2-carboxamido)-2-methylpropyl)boronic acid]",Extraction ratio,"in vitro; mouse, 1 μM, pH 7.4",<0.3
same,Remaining (*NCF = 60min),in vitro; [6],99.0%
same,Remaining (T = 60 min),in vitro; [6],78.5%
same,CLint scaled at 1 μM,"in vitro; mouse, microsomes, pH 7.4",< 38 mL/min/kg
same,half-life at 1 μM,"in vitro; mouse, microsomes, pH 7.4",> 2.42 h
same,microsomal CLint at 1 μM,"in vitro; mouse, microsomes, pH 7.4",< 9.6 µL/min/mg
same,% Remaining (mean),"Plasma Stability Assay; CD-1 Mouse Plasma, 0 min, 2 μM, 37° C.",100.0%
same,% Remaining (mean),"Plasma Stability Assay; CD-1 Mouse Plasma, 10 min",100.5%
same,% Remaining (mean),"Plasma Stability Assay; CD-1 Mouse Plasma, 30 min",105.2%
same,% Remaining (mean),"Plasma Stability Assay; CD-1 Mouse Plasma, 60 min",88.0%
same,% Remaining (mean),"Plasma Stability Assay; CD-1 Mouse Plasma, 120 min",76.7%
same,IC50,[1]; CF sputum,0.51 ± 0.04 nM
same,solubility kinetic at 24 h,"Kinetic Solubility Test; aqueous buffer, kinetic from dmso stock, phosphate buffer pH 6.8, 24 h",> 74.2 µg/mL and > 200 µM
same,IC50,[2],0.274 ± 0.004 nM
CC(C)[C@H](NC(=O)c1ccc(C(=O)NS(=O)(=O)c2ccc(Cl)cc2)cc1)C(=O)N1CCC[C@H]1C(=O)N[C@H](C(=O)C(F)(F)F)C(C)C [Compound 51a],CLint(liver),in vitro; MLM 0.5,76.6 mL/min/kg
same,Remaining (*NCF = 60min),"in vitro; MLM 0.5, no co-factor",91.7%
same,Remaining (T = 60 min),"in vitro; MLM 0.5, with NADPH regenerating system",52.2%
same,% Remaining (mean),"Plasma Stability Assay; mouse, plasma, 10 min",99.0%
same,% Remaining (mean),"Plasma Stability Assay; mouse, plasma, 0.5 h",109.1%
same,% Remaining (mean),"Plasma Stability Assay; mouse, plasma, 1 h",99.5%
same,% Remaining (mean),"Plasma Stability Assay; mouse, plasma, 2 h",106.6%
same,CD-1 Mouse Plasma % Remaining @ 2 hr,"Plasma Stability Assay; mouse, plasma, 2 h",106.6%
same,Kinetic Solubility pH = 6.8,"Kinetic Solubility Test; phosphate buffer pH 6.8, 24 h",119.75 μg/mL
same,solubility kinetic at 24 h,"Kinetic Solubility Test; phosphate buffer pH 6.8, 24 h",174.28 µM
same,Kinetic solubility (pH 6.8),Kinetic Solubility Test; summary table,174.28 μm
same,Caco-2 (Papp A − B),Caco-2 cells,<0.16 10^−6 cm/s
same,Caco-2 (Papp B − A),Caco-2 cells,0.61 10^−6 cm/s
same,Mean Papp A to B,Caco-2 cells,<0.08 10^−6 cm/s
same,Mean Papp B to A,Caco-2 cells,<0.12 10^−6 cm/s
same,Mean Recovery % A to B,Caco-2 cells,<74.15%
same,Mean Recovery % B to A,Caco-2 cells,<90.87%
Cc1c(-c2ccnn2-c2ccc(C#N)cc2)cc(C(=O)NCC(O)CNC(=O)c2cc(-c3ccnn3-c3ccc(C#N)cc3)c(C)n(-c3cccc(C(F)(F)F)c3)c2=O)c(=O)n1-c1cccc(C(F)(F)F)c1 [Compound 58],Ki,"[3]; 2.5, 25, 50 and 100 μM substrate, mixed model",0.0027 nM
same,Ki,[3]; purified HNE,0.0027 nM
same,IC50,[1]; CF sputum,203 ± 31.2 nM
same,LipE,[1]; CF sputum,0.77
same,inhibitory activity in patient sputum versus purified HNE (in words),[1]; sputum samples of CF and COPD patients,potencies diminished drastically
same,LipE,[4]; Purified NHE,5.04
same,IC50,"[4]; Purified NHE, 30 minutes incubation at room temperature, 100 μM substrate",0.0111 ± 0.0002 nM
same,IC50,[4]; purified HNE,0.011 nM
same,IC50,[2],16.2 ± 2.13 nM
same,LipE,[2],1.87
same,IC50,[5]; 5 min incubation with inhibitor,0.011 nM
same,IC50,[5]; 15 min incubation with inhibitor,0.004 nM
same,IC50,[5]; 30 min incubation with inhibitor,0.0026 nM
same,increase in potency with increasing incubation times,[5]; between 5-60 minutes,55 fold
